PMC12023841, “Unlocking the Gates: A Novel Diagnostic Molecule for Quantifying Efflux Levels in Gram‐Positive Bacteria” (Advanced Healthcare Materials, 2025)
Read-outs that look alike come from different tables or passages of the source.

Tests used:
NorA efflux pump = NorA efflux pump (Staphylococcus aureus, UniProt P0A0J7); assay type: cell-based, S. aureus; conditions: 5a4 1 µg mL^−1
[1] = Precipitation of reserpine in the presence of 5a4; assay type: physicochemical; conditions: text printed in Figure 7C
S. aureus strains [2] = assay type: cell-based
S. epidermidis strains [3] = assay type: cell-based
S. aureus strains [4] = conditions: cited from earlier work
S. epidermidis strains [5] = test system: S. epidermidis strains; parameters: method as in earlier work; conditions: ref [5], cited from earlier work

Chain of NorA efflux pump (P0A0J7 whole entry): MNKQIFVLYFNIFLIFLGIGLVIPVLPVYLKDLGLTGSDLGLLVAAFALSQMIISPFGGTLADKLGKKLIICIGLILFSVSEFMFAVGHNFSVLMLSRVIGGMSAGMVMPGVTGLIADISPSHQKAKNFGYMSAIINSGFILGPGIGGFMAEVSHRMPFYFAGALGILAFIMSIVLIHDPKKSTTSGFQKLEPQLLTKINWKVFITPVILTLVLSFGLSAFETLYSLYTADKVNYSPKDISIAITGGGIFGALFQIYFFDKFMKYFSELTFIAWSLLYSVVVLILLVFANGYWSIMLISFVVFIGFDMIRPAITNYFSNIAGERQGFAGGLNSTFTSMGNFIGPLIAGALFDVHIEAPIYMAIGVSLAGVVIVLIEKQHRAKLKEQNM

COC(=O)[C@H]1[C@H]2C[C@@H]3c4[nH]c5cc(OC)ccc5c4CCN3C[C@H]2C[C@@H](OC(=O)c2cc(OC)c(OC)c(OC)c2)[C@@H]1OC [reserpine]
≥ 10 µg/mL: reserpine concentration giving significant increase (p < 0.01) in 5a4 fluorescence intensity versus untreated cells (NorA efflux pump; SA‐1199 and SA‐1199B)
20 to 30 µg/mL: Precipitation of reserpine (concentration) [1]
drastic increase: change of 5a4 fluorescent intensity with reserpine (NorA efflux pump; SA‐1199B)
no discernible change: change of 5a4 fluorescent intensity with reserpine (NorA efflux pump; SA‐K1758 (norA‐deficient))

COc1c(N2C[C@@H]3CCCN[C@@H]3C2)c(F)cc2c(=O)c(C(=O)O)cn(C3CC3)c12 [MXF, Moxifloxacin]
R and S: Susceptibility profile (S. aureus strains [2])
S: Susceptibility profile (S. aureus strains [2]; […]) | Susceptibility profile (S. aureus strains [2]; strain BIOS-H1) | Susceptibility profile (S. aureus strains [2]; strain BIOS-H2) | Susceptibility profile (S. aureus strains [2]; strain BIOS-H3) | Susceptibility profile (S. aureus strains [2]; strain BIOS-H5) | Susceptibility profile (S. aureus strains [2]; strain BIOS-H6) | Susceptibility profile (S. aureus strains [2]; strain BIOS-H12) | Susceptibility profile (S. aureus strains [2]; strain BIOS-H13) | Susceptibility profile (S. aureus strains [2]; strain BIOS-H17) | Susceptibility profile (S. aureus strains [2]; strain BIOS-H20) | Susceptibility profile (S. aureus strains [2]; strain BIOS-H21) | Susceptibility profile (S. aureus strains [2]; strain BIOS-H22) | Susceptibility profile (S. aureus strains [2]; strain BIOS-H25) | Susceptibility profile (S. aureus strains [2]; strain BIOS-H28) | Susceptibility profile (S. aureus strains [2]; strain BIOS-H29) | Susceptibility profile (S. aureus strains [2]; strain BIOS-H30) | Susceptibility profile (S. aureus strains [2]; strain BIOS-H32) | Susceptibility profile (S. aureus strains [2]; strain BIOS-V21) | Susceptibility profile (S. aureus strains [2]; strain BIOS-V31) | Susceptibility profile (S. aureus strains [2]; strain BIOS-V60) | Susceptibility profile (S. aureus strains [2]; strain BIOS-V61) | Susceptibility profile (S. aureus strains [2]; strain BIOS-V62) | Susceptibility profile (S. aureus strains [2]; strain BIOS-V74) | Susceptibility profile (S. aureus strains [2]; strain BIOS-V75) | Susceptibility profile (S. aureus strains [2]; strain BIOS-V85) | Susceptibility profile (S. aureus strains [2]; strain BIOS-V118) | Susceptibility profile (S. aureus strains [2]; strain BIOS-V128) | Susceptibility profile (S. aureus strains [2]; strain BIOS-V147) | Susceptibility profile (S. aureus strains [2]; strain BIOS-V151) | Susceptibility profile (S. aureus strains [2]; strain BIOS-V156) | Susceptibility profile (S. aureus strains [2]; strain BIOS-V157) | Susceptibility profile (S. aureus strains [2]; strain BIOS-V158) | Susceptibility profile (S. aureus strains [2]; strain BIOS-V168) | Susceptibility profile (S. aureus strains [2]; strain BIOS-V172) | Susceptibility profile (S. aureus strains [2]; strain BIOS-V178) | Susceptibility profile (S. aureus strains [2]; strain BIOS-V203) | Susceptibility profile (S. aureus strains [2]; strain BIOS-V245) | Susceptibility profile (S. aureus strains [2]; strain BIOS-V250) | Susceptibility profile (S. aureus strains [2]; strain BIOS-V257) | Susceptibility profile (S. aureus strains [2]; strain BIOS-V279) | Susceptibility profile (S. aureus strains [2]; strain BIOS-V295) | Susceptibility profile (S. epidermidis strains [3]; strain BIOS-V24) | Susceptibility profile (S. epidermidis strains [3]; strain BIOS-V282) | Susceptibility profile (S. aureus strains [4]; strain ATCC25923, ref [4]) | Susceptibility profile (S. aureus strains [4]; strain SA-1199, ref [2]) | Susceptibility profile (S. aureus strains [4]; strain SA-1199B, ref [2]) | Susceptibility profile (S. aureus strains [4]; strain SA-K1712, ref [3]) | Susceptibility profile (S. aureus strains [4]; strain SA-K1758, ref [2]) | Susceptibility profile (S. epidermidis strains [5]; strain ATCC12228)
R: Susceptibility profile (S. epidermidis strains [3]) | Susceptibility profile (S. aureus strains [4]; strain SA-K1748, ref [3]) | Susceptibility profile (S. aureus strains [4]; strain SA-K2068, ref [3]) | Susceptibility profile (S. epidermidis strains [5]; strain ATCC12228_EtBr)
